{"source": "paper PMC12720774", "about": "“Detergents alter the stability and lipid binding properties of the CD1d immunoreceptor” (Protein Science : A Publication of the Protein Society, 2025)", "key": {"[1]": {"settings": "approximate, ref Anatrace catalogue, cited from earlier work"}, "[2]": {"target": "T1, AF647‐labeled hCD1d (Homo sapiens, UniProt P15813)", "T1 construct": "TEV protease cleavage site ENLYFQS (C); BirA biotinylation site (C); His7 (C); made in house; host or cells: TurboCHO cells (GenScript)", "T1 sequence (P15813 whole entry, looked up)": "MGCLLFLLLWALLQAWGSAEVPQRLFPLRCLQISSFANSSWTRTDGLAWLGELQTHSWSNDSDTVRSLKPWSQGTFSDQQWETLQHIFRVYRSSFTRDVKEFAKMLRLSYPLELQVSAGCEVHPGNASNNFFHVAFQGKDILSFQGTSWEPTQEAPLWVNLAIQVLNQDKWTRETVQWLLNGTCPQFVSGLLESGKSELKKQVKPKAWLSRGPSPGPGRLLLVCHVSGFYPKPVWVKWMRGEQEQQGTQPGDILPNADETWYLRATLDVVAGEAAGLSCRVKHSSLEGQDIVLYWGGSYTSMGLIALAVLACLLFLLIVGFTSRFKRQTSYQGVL", "assay": "Microscale thermophoresis (MST) binding assay", "procedure,_shortened": "(§1)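 hCD1d was NHS-labeled with AF647 (~75% labeling) and held at 100 nM against rising detergent or 18:1 LPC in PBS pH 7.4. Samples were preincubated at 37°C overnight (~12 h) and read at 25°C with 20 s IR-on time. Data are mean ± SD, n = 3.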"}, "[3]": {"target": "T2, AF647‐labeled hCD1d (Homo sapiens, UniProt P15813+P61769)", "T2 construct": "TEV protease cleavage site ENLYFQS (C); BirA biotinylation site (C); His7 (C); made in house; host or cells: TurboCHO cells (GenScript)", "T2 sequence (P61769+P15813 fused)": "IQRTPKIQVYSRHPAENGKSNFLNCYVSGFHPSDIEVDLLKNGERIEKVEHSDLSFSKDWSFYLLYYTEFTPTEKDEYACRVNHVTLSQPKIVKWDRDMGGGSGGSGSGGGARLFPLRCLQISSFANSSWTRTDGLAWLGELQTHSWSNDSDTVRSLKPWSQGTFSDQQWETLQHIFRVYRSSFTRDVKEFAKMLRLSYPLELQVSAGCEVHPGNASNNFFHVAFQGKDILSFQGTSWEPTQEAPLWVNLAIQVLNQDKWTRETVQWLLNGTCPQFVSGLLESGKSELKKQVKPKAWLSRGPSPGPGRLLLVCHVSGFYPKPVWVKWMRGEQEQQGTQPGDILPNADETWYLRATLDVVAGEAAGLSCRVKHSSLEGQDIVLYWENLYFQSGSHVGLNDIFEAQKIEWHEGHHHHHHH", "assay": "Microscale thermophoresis (MST) binding assay", "procedure,_shortened": "as §1"}, "[4]": {"target": "hCD1d (Homo sapiens, UniProt P15813+P61769)", "sequence (P61769+P15813 fused)": "as above", "assay": "Nano differential scanning fluorimetry (nanoDSF) thermal stability", "format": "binding", "design": "TEV protease cleavage site ENLYFQS (C); BirA biotinylation site (C); His7 (C); made in house; host or cells: TurboCHO cells (GenScript)"}}, "note": "Values joined by “and” are separate entries in the source; they are usually repeats but may differ in a detail not shown here. Identical values can stand only once. Counter-ions that a name gives are not always drawn. Like-named read-outs stand apart in the source and are kept apart here.", "data": [{"smiles": "CCCCCCCCCCCCOS(=O)(=O)O", "note": "[SDS, sodium dodecyl sulfate]", "values": [{"measurement": "CMC", "setting": "[1]", "result": 1990, "unit": "µM"}, {"measurement": "CMC", "setting": "[1]; weight/volume", "result": 0.057, "unit": "%"}, {"measurement": "Kd", "setting": "[2]; K D (MST), detergent with 100 nM AF647‐labeled hCD1d, 25°C, apparent", "result": "> 10000", "unit": "µM"}, {"measurement": "Kd", "setting": "[2]; K D, detergent class summary, approximate, collectively from ITF and MST", "result": "10 to 500", "unit": "µM"}, {"measurement": "binding to hCD1d by MST (in words)", "setting": "[3]", "result": "observable binding"}, {"measurement": "Fnorm (rep 1-3)", "setting": "[3]; 3.05176e-8 M detergent", "result": "794.561 ‰ and 796.538 ‰ and 787.226 ‰"}, {"measurement": "Fnorm (rep 1-3)", "setting": "[3]; 6.10352e-8 M detergent", "result": "793.573 ‰ and 796.65 ‰ and 788.808 ‰"}, {"measurement": "Fnorm (rep 1-3)", "setting": "[3]; 1.2207e-7 M detergent", "result": "795.629 ‰ and 795.536 ‰ and 789.052 ‰"}, {"measurement": "Fnorm (rep 1-3)", "setting": "[3]; 2.44141e-7 M detergent", "result": "792.166 ‰ and 793.398 ‰ and 784.145 ‰"}, {"measurement": "Fnorm (rep 1-3)", "setting": "[3]; 4.88281e-7 M detergent", "result": "790.042 ‰ and 793.566 ‰ and 789.803 ‰"}, {"measurement": "Fnorm (rep 1-3)", "setting": "[3]; 9.76563e-7 M detergent", "result": "792.907 ‰ and 794.378 ‰ and 788.273 ‰"}, {"measurement": "Fnorm (rep 1-3)", "setting": "[3]; 1.95313e-6 M detergent", "result": "792.77 ‰ and 792.711 ‰ and 788.545 ‰"}, {"measurement": "Fnorm (rep 1-3)", "setting": "[3]; 3.90625e-6 M detergent", "result": "794.169 ‰ and 793.199 ‰ and 789.062 ‰"}, {"measurement": "Fnorm (rep 1-3)", "setting": "[3]; 7.8125e-6 M detergent", "result": "793.805 ‰ and 798.209 ‰ and 788.93 ‰"}, {"measurement": "Fnorm (rep 1-3)", "setting": "[3]; 1.5625e-5 M detergent", "result": "795.098 ‰ and 796.977 ‰ and 790.788 ‰"}, {"measurement": "Fnorm (rep 1-3)", "setting": "[3]; 3.125e-5 M detergent", "result": "796.19 ‰ and 799.152 ‰ and 792.387 ‰"}, {"measurement": "Fnorm (rep 1-3)", "setting": "[3]; 6.25e-5 M detergent", "result": "800.38 ‰ and 802.553 ‰ and 795.217 ‰"}, {"measurement": "Fnorm (rep 1-3)", "setting": "[3]; 0.000125 M detergent", "result": "801.158 ‰ and 800.337 ‰ and 800.706 ‰"}, {"measurement": "Fnorm (rep 1-3)", "setting": "[3]; 0.00025 M detergent", "result": "801.719 ‰ and 804.302 ‰ and 803.561 ‰"}, {"measurement": "Fnorm (rep 1-3)", "setting": "[3]; 0.0005 M detergent", "result": "816.347 ‰ and 820.909 ‰ and 814.082 ‰"}, {"measurement": "Fnorm (rep 1-3)", "setting": "[3]; 0.001 M detergent, 100 nM AF647‐hCD1d", "result": "825.168 ‰ and 825.899 ‰ and 822.956 ‰"}, {"measurement": "ΔTm aveage", "setting": "[4]; Figure 5C, nanoDSF, hCD1d with detergent", "result": -13.07, "unit": "°C"}, {"measurement": "ΔT m (NanoDSF)", "setting": "[4]; T m difference between hCD1d in the absence and presence of 1000 μM detergent, 1 μM hCD1d", "result": "−13.1 ± 0.7", "unit": "°C"}, {"measurement": "ΔT m, detergent class summary", "setting": "[4]; approximate", "result": "−12 to −15", "unit": "°C"}, {"measurement": "detergent concentration at which hCD1d appeared to unfold", "setting": "[4]; disappearance of inflection point in ∂(F350/F330)/∂T", "result": "> 200", "unit": "µM"}]}]}
